# Laboratory results: US20250375413A1, “METHOD OF INHIBITING LIPASE ACTIVITY IN AGING” (The Regents of the University of California, priority 2024, published 2025)
# “Also recorded” adds a separate entry of the source.
# Columns and labels:
# [1] = Blood glucose level at tissue collection; type: in vivo, rat; conditions: old rats, two-week treatment
# Source text: At the time of tissue collection, fresh femoral arterial blood was used to measure the blood glucose level (Contour®, Bayer® Diabetes Care, Tarrytown, NY) and the percent of glycated hemoglobin levels (AIC Home Test; Bristol-Myers Squibb®; NY, NY).
# [2] = test system: pancreatic trypsin and amylase; assay: Digestive enzyme (trypsin, amylase) accumulation in the intestinal wall, whole mount co-labeling; type: in vivo, rat; conditions: old rats, 14 days oral; villi tips and submucosa
# Source text: (§1) Small intestine: Full-thickness tissue blocks of the wall of the proximal jejunum (3×5 mm) were fixed from all sides in 10% formalin. Digestive enzymes were detected with primary and secondary antibodies labeled with 3, 3′-diaminobenzidine (DAB, Peroxidase Substrate Kit, ab64238, Abcam®).
# To co-label the small intestine for mucin and trypsin, the fixed intestine was immersed in the primary antibody against trypsin and stained with DAB substrate. Thereafter the tissue section was embedded in resin and sectioned into thin (1 μm) sections. The mucin label (alcian blue), was applied to the thin section, coverslipped, and imaged.
# [3] = test system: mucin layer on the epithelium of the small intestine; assay: Mucin layer density in small intestine (alcian blue); type: in vivo, rat; conditions: old rats, 14 days oral, upper jejunum
# Source text: as §1
# The mucin-containing layer on the epithelial cells of the small intestine was stained using alcian blue (pH 2.5, kt 003; Diagnostic BioSystems, Pleasanton, CA) followed by a rinse in distilled water and mounted on a microscope slide (Vector Mount AQ Aqueous Mounting Medium, Vector® Laboratories, Burlington, CA).
# [4] = Effect of oral treatment on digestion / body weight; type: in vivo, rat; conditions: old rats, temporary oral treatment in drinking water
# Source text: Male Wistar rats (Harlan Sprague Dawley Inc., Indianapolis, IN) at maturity (4 months, 300 to 350 gm) and at old age (24 months, 375 to 450 gm) were included in the study. The animals were maintained on standard laboratory chow (8604 Teklad rodent diet; Harlan Laboratories, Indianapolis, Ind) without restriction and water ad libitum and maintained in a separate room without pathogen-free conditions.
# pancreatic trypsin = conditions: old-treated rats (24 months, 14 days oral) compared with young
# Description: A femoral venous catheter was placed after general anesthesia (pentobarbital sodium, 50 mg/kg [Abbott Laboratories, North Chicago, Il1], intramuscularly after local anesthesia [2% lidocaine HCl; Hospira, Inc, Lake Forrest, Il1]). Tissues (intestine, liver, lung, heart, kidney, brain, mesentery, skin) were immediately collected after euthanasia (Beuthanasia i.v., 120 mg/kg, Schering-Plough Animal Health Corp, Union, NJ), fixed (formalin, 10%, neutral buffered, 1 hr), postfixed (fresh formalin, 24 hrs), and stored (formalin, 10%). The period between initial anesthesia and fixation of the tissues was below 60 minutes. […]
# Primary antibodies were diluted to 1-1.5 μl/1000 μl of phosphate-buffered saline. […] No counterstain was applied to facilitate quantitative label intensity measurements. […] For each tissue, the labeling procedures were standardized among the animal groups to permit a quantitative comparison of label densities between ages and treatment with digital image analysis.
# Images of the immunolabel density were recorded at multiple magnifications (between 10× objective, numerical aperture 0.25, and 60×, numerical aperture 1.4). They were recorded under standard light conditions with fixed optical and digital camera settings (SPOT Insight® GIGABIT camera, Sterling Height) so that the camera serves as a quantitative light intensity meter without pixel intensity saturation. […]
# insulin receptor = assay: Brain insulin receptor extracellular domain immunolabel density; type: in vivo, rat; conditions: old rats, two-week treatment
# Source text: Sections without primary antibodies were used as negative controls.
# Insulin receptors' densities on random tissue sections, labeled with an antibody against the extracellular domain, are digitally recorded by placing an optical window on the cell and determining light intensity at a constant incident light Io.
substance,measurement,setting,value
tranexamic acid [trypsin inhibitor],plasma/blood glucose level,[1],mitigated; also recorded: restored in part
same,accumulation of trypsin and amylase in the intestinal wall,[2],attenuated
same,mucin layer density on intestinal villi,[3],partially restored; also recorded: restored in part
same,"attenuation of digestion, such as reduction of body weight",[4],did not lead to a detectable attenuation of digestion
same,trypsin label density in the brain,pancreatic trypsin,almost reached the level in the young (no significant difference)
same,trypsin label density in the mesentery,pancreatic trypsin,not different from the young
same,density of insulin receptor ectodomains in cerebral cortex,insulin receptor,in part restored; also recorded: restored in part
